Like-named read-outs stand apart in the source and are kept apart here.
Columns and labels:
[1] = molecular target: T1, CDK12 (Homo sapiens (Human), UniProt Q9NYV4); assay: Biochemical assay for CDK12 (IC50 determination), LANCE TR-FRET; settings: for IC50: ATP 100 μM, 60 min pre-incubation
Experimental: The inhibitory activity of the test compounds was assessed by the LANCE TR-FRET assay, which detects the ATP-dependent phosphorylation of an ULight-4E-BP1 (Thr37/Thr46) substrate peptide (100 nM) by CDK12 (30 nM). Briefly, the enzyme reaction was run in reaction buffer (25 mM HEPES (pH 7.5), 10 mM MgCl2, 0.01% BSA, 0.01% Triton x, 1 mM DTT). The assay was performed in 384-well plate format. The end concentration of the ATP substrate was 100 μM, and that of the ULight-4E-BP1 (Thr37/Thr46) substrate peptide was 100 nM, and of CDK12 was 30 nM. Pre-incubation of the compound and enzyme was performed for 60 min at room temperature. After 60 min incubation at room temperature, the reaction was terminated by the addition of 40 mM EDTA and 0.5 nM Eu-labeled anti-phospho-eIF4E-binding protein (Thr37/46) antibody in LANCE detection buffer. […] The readout was calculated as (acceptor counts/donor counts)×1000. The IC50 values were derived by fitting a sigmoidal dose-response curve to a plot of assay readout over inhibitor concentration.
Target sequence in this assay (Q9NYV4 whole entry, looked up, species assumed): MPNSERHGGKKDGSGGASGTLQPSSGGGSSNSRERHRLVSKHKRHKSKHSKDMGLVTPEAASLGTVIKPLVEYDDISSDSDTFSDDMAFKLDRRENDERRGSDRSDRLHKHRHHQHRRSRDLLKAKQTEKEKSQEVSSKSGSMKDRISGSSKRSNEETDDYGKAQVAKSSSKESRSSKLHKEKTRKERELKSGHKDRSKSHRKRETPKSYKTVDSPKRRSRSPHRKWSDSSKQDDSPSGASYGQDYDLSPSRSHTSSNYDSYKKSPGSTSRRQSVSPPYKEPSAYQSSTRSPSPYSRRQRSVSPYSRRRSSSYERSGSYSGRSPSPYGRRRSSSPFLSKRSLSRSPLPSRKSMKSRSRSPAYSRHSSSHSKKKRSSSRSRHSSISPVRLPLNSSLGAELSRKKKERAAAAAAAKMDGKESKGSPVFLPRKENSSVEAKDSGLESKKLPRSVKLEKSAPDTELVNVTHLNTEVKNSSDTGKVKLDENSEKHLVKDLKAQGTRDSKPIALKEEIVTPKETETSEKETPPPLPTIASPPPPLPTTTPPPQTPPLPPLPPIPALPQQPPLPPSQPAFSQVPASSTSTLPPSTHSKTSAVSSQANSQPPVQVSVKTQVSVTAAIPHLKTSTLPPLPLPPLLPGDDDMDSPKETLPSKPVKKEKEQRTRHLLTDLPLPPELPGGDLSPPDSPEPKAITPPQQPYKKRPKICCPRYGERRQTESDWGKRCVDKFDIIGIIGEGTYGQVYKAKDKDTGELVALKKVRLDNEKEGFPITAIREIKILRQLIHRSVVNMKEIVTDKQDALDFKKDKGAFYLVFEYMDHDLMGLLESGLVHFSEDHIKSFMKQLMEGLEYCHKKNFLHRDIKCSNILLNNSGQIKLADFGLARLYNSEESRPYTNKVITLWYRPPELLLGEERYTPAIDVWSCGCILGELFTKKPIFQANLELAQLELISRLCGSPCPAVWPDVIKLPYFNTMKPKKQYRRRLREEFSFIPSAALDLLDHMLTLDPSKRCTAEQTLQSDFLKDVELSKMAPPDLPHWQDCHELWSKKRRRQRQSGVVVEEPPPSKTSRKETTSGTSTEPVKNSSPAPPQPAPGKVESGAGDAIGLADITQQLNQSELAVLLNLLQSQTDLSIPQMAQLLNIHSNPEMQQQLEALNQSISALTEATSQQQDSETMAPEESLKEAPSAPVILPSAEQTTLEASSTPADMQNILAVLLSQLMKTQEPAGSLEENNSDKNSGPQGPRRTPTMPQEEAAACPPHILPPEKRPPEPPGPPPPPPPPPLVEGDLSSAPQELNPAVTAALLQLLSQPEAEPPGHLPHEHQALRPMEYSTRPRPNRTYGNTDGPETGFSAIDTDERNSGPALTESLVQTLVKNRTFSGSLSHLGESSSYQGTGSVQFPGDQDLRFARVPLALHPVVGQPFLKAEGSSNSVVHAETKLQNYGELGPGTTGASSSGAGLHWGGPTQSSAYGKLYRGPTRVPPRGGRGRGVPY
Target sequence in this assay (O75909 whole entry partner, looked up, species assumed): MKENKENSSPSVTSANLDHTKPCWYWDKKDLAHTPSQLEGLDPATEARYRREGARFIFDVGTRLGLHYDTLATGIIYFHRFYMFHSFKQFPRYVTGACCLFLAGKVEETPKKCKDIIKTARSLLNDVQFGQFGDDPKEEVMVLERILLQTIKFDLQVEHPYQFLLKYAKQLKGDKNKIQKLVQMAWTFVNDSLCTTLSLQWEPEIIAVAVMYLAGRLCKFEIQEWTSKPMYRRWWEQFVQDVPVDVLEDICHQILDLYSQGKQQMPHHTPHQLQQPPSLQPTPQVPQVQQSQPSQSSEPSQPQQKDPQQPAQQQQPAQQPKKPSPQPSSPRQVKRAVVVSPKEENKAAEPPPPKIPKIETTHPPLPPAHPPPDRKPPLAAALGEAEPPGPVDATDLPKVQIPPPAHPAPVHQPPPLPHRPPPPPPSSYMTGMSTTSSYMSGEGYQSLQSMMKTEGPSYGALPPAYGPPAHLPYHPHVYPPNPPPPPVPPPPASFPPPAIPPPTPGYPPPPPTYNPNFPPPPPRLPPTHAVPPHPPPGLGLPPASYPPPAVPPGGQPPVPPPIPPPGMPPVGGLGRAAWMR

[2] = molecular target: CDK7 (Homo sapiens (Human), UniProt P50613); assay: Biochemical assay for CDK7, LANCE TR-FRET; settings: ATP 1 mM/100 μM, 60 min pre-incubation; read-out: CDK 7 IC50
CDK7, sequence (P50613 whole entry, looked up, species assumed): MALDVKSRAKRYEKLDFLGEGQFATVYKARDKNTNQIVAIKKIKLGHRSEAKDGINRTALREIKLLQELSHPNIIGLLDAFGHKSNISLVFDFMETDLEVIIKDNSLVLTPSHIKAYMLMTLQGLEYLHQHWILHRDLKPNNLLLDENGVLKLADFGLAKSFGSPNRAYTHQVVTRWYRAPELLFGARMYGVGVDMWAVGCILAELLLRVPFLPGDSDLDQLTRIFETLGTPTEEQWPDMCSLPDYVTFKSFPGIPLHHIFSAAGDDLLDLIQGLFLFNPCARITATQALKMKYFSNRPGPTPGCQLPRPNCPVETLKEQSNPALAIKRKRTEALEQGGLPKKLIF
CDK7, sequence (P51946 whole entry partner, looked up, species assumed): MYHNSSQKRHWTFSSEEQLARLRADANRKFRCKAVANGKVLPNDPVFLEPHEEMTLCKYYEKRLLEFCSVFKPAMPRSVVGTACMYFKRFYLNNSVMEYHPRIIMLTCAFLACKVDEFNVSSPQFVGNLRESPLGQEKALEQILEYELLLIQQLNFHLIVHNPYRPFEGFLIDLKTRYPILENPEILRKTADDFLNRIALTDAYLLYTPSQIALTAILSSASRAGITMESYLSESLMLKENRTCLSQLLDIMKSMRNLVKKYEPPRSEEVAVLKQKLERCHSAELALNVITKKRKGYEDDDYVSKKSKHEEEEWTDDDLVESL
CDK7, sequence (P51948 whole entry partner, looked up, species assumed): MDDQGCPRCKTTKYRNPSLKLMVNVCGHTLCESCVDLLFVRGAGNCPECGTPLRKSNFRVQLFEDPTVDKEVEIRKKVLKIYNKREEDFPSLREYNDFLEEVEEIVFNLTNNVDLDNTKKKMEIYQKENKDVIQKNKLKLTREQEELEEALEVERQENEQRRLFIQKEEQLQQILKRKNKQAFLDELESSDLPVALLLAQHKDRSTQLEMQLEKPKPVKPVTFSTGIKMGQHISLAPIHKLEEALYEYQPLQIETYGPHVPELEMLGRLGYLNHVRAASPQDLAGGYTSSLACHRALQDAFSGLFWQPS
Experimental: The inhibitory activity of the test compounds was assessed by the LANCE TR-FRET assay, which detects the ATP-dependent phosphorylation of an ULight-myelin basic protein (MBP) substrate peptide (100 nM) by CDK7 (10 nM). Briefly, the enzyme reaction was run in reaction buffer (20 mM HEPES (pH 7.5), 10 mM MgCl2, 0.01% Triton x, 100 μM Sodium Orthovanadate, 1 mM DTT). The assay was performed in 384-well plate. The end concentration of the ATP substrate was 1 mM/100 μM, and that of the ULight-MBP substrate peptide was 100 nM, and of CDK7 was 10 nM. Pre-incubation of the compound and enzyme was performed for 60 min at room temperature. After 60 min incubation at room temperature, the reaction was terminated by the addition of 40 mM EDTA and 1 nM Eu-labeled anti-phospho-MBP-binding protein antibody in the buffer. […] The readout was calculated as (acceptor counts/donor counts)×1000. The IC50 values were derived by fitting a sigmoidal dose-response curve to a plot of assay readout over inhibitor concentration.

[3] = molecular target: CDK13 (Homo sapiens (Human), UniProt Q14004); assay: Biochemical assay for CDK13, LanthaScreen Eu Kinase Binding Assay; settings: for IC50: kinase tracer 236 100 nM; for Ratio CDK7/CDK13: ratio of IC50
CDK13, sequence (Q14004 whole entry, looked up, species assumed): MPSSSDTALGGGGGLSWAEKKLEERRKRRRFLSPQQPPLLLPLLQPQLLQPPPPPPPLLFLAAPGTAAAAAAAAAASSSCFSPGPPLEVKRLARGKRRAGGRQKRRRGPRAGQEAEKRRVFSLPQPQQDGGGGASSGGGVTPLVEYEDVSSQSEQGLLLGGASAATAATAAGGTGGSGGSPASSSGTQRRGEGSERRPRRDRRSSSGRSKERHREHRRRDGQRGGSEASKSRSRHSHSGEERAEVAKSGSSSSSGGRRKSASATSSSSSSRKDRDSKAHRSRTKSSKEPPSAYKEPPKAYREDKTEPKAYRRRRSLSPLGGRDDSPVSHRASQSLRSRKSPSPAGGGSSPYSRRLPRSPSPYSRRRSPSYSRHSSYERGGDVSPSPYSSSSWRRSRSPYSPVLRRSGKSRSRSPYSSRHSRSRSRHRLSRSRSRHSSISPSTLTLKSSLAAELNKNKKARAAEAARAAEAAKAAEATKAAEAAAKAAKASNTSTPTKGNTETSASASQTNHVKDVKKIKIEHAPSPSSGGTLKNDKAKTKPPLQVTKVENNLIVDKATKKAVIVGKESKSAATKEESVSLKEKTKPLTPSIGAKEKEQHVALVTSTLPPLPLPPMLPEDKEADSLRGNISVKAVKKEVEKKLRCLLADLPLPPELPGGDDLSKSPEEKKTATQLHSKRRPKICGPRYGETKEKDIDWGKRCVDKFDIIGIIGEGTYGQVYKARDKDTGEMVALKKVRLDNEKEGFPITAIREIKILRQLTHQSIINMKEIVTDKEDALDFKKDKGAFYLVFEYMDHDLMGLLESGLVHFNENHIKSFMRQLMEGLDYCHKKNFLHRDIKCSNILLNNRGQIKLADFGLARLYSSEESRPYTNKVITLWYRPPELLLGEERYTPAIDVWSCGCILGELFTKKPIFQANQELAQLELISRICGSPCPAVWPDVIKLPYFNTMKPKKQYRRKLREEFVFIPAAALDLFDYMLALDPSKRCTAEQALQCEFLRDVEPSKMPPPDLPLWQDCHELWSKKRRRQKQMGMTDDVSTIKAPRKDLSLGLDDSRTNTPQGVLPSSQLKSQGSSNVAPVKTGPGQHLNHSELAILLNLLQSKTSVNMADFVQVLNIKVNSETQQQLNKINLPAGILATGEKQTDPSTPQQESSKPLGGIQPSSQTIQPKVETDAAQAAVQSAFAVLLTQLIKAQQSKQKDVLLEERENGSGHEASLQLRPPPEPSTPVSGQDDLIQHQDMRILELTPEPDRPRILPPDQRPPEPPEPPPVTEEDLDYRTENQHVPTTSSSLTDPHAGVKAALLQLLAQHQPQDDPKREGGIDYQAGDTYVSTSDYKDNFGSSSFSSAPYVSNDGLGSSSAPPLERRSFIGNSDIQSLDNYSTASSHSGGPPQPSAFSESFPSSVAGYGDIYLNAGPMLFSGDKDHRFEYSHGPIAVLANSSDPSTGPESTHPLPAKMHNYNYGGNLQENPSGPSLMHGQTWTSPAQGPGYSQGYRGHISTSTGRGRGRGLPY
CDK13, sequence (O75909 whole entry partner, looked up, species assumed): as the sequence (O75909 whole entry partner, looked up, species assumed) above
Description: Binding of an inhibitor to the kinase competes for binding with the tracer, resulting in a loss of FRET signal.

[4] = molecular target: T1, CDK12; assay: Biochemical assay for CDK12 (Kd determination), kinase-tagged phage/qPCR competition binding
Experimental: Kinase-tagged T7 phage strains were grown in parallel in 24-well blocks in an E. coli host derived from the BL21 strain. E. coli were grown to log-phase and infected with T7 phage from a frozen stock (multiplicity of infection=0.4) and incubated with shaking at 32° C. until lysis (90-150 minutes). The lysates were centrifuged (6,000×g) and filtered (0.2 μm) to remove cell debris. The remaining kinases were produced in HEK-293 cells and subsequently tagged with DNA for qPCR detection. […] The liganded beads were blocked with excess biotin and washed with blocking buffer (SeaBlock (Pierce), 1% BSA, 0.05% Tween 20, 1 mM DTT) to remove unbound ligand and to reduce non-specific phage binding. […] Test compounds were prepared as 40× stocks in 100% DMSO and directly diluted into the assay. All reactions were performed in polypropylene 384-well plates in a final volume of 0.02 ml. […] The kinase concentration in the eluates was measured by qPCR.
Target sequence in this assay (Q9NYV4 whole entry, species assumed): as the sequence (Q9NYV4 whole entry, looked up, species assumed) above

| SMILES | Ratio CDK7/CDK12 [1] | IC50 [1] [µM] | IC50 [2] [µM] | IC50 [3] [µM] | Ratio CDK7/CDK13 [3] | Kd [4] [µM] | Ratio CDK7/CDK12 ([1]; ratio of IC50) |
| --- | --- | --- | --- | --- | --- | --- | --- |
| C=CC(=O)N1CCC(c2ccc(C(C)C(=O)Nc3cc(C4CC4)[nH]n3)cn2)CC1 (centres unmarked) [Compound 13, 2-(6-(1-acryloylpiperidin-4-yl)pyridin-3-yl)-N-(5-cyclopropyl-1H-pyrazol-3-yl)propanamide] | 172.41 | 0.058 | > 10 | 0.028 | 357.14 |  |  |
| C=CC(=O)NC1CC=C(c2ccc(C(C)C(=O)Nc3cc(C4CC4)[nH]n3)cc2)CC1 (centres unmarked) [Compound 8, N-(4′-(1 ((5-cyclopropyl-1H-pyrazol-3-yl)amino)-1-oxopropan-2-yl)-2,3,4,5-tetrahydro-[1,1′-biphenyl]-4-yl)acrylamide] |  | 0.38 |  | 0.019 |  | 0.025 to 0.1 |  |
| C=CC(=O)N1CCC=C(c2ccc(C(C(=O)Nc3cc(C4CC4)[nH]n3)C(C)C)cn2)C1 (centres unmarked) [Compound 43, 2-(1′-acryloyl-1′,2′,5′,6′-tetrahydro-[2,3′-bipyridin]-5-yl)-N-(5-cyclopropyl-1H-pyrazol-3-yl)-3-methylbutanamide] |  | 0.178 |  | 0.054 |  |  |  |
| C=CC(=O)N1CC=C(c2ccc(C(C)C(=O)Nc3cc(C4CC4)[nH]n3)cn2)C1 (centres unmarked) [Compound 47, 2-(6-(1-acryloyl-2,5-dihydro-1H-pyrrol-3-yl)pyridin-3-yl)-N-(5-cyclopropyl-1H-pyrazol-3-yl)propanamide] |  | 0.676 |  | 0.006 |  |  |  |
| C=CC(=O)N1CCC=C(c2ccc(C(CC)C(=O)Nc3cc(C4CC4)[nH]n3)cn2)C1 (centres unmarked) [Compound 39, 2-(1′-acryloyl-1′,2′,5′,6′-tetrahydro-[2,3′-bipyridin]-5-yl)-N-(5-cyclopropyl-1H-pyrazol-3-yl)butanamide] |  | 0.041 |  | 0.093 |  |  |  |
| C[C@H](C(=O)Nc1cc(C2CC2)[nH]n1)c1ccc(C2=CCN(C(=O)/C=C/CN3CCOCC3)CC2)cc1 [Compound 16, (S,E)-N-(5-cyclopropyl-1H-pyrazol-3-yl)-2-(4-(1-(4-morpholinobut-2-enoyl)-1,2,3,6-tetrahydropyridin-4-yl)phenyl)propanamide] |  | 0.646 |  | 0.035 |  |  |  |
| C=CC(=O)N1CCC=C(c2ccc(C(C)C(=O)Nc3cc(C4CC4)[nH]n3)cc2F)C1 (centres unmarked) [Compound 42, 2-(4-(1-acryloyl-1,2,5,6-tetrahydropyridin-3-yl)-3-fluorophenyl)-N-(5-cyclopropyl-1H-pyrazol-3-yl)propanamide] | 31.42 | 0.014 | 0.44 | 0.087 | 5.05 |  |  |
| C=CC(=O)N1CC=C(c2ccc(C(C)C(=O)Nc3cc(C4CC4)[nH]n3)cn2)C1 (centres unmarked) [Compound 38, 2-(6-(1-acryloyl-2,5-dihydro-1H-pyrrol-3-yl)pyridin-3-yl)-N-(5-cyclopropyl-1H-pyrazol-3-yl)propanamide] | 29.7 | 0.034 | 1.01 | 0.1 | 10.1 |  |  |
| C=CC(=O)NC1CCN(c2ccc(C(C)C(=O)Nc3cc(C4CC4)[nH]n3)cc2)CC1 (centres unmarked) [Compound 21, N-(1-(4-(1-((5-cyclopropyl-1H-pyrazol-3-yl)amino)-1-oxopropan-2-yl)phenyl)piperidin-4-yl)acrylamide] |  | 0.235 |  | 0.073 |  | < 0.025 |  |
| C=CC(=O)N1CC=C(c2ccc(C(C(=O)Nc3cc(C4CC4)[nH]n3)C(C)C)cc2)CC1 (centres unmarked) [Compound 3, 2-(4-(1-acryloyl-1,2,3,6-tetrahydropyridin-4-yl)phenyl)-N-(5-cyclopropyl-1H-pyrazol-3-yl)-3-methylbutanamide] |  |  | 0.506 | 0.101 | 5.0 | > 0.1 |  |
| C=CC(=O)N1CCN(c2ccc(C(C)C(=O)Nc3cc(C4CC4)[nH]n3)cc2)CC1 (centres unmarked) [Compound 18, 2-(4-(4-acryloylpiperazin-1-yl)phenyl)-N-(5-cyclopropyl-1H-pyrazol-3-yl)propanamide] |  |  |  |  | 198.46 |  | 9.75 |
| C=CC(=O)N1CCN(c2ccc(C(C)C(=O)Nc3cc(C4CC4)[nH]n3)cc2)CC1 (single isomer, unassigned) [Compound 19, 2-(4-(4-acryloylpiperazin-1-yl)phenyl)-N-(5-cyclopropyl-1H-pyrazol-3-yl)propanamide] |  |  |  | 5.81 |  | > 0.1 |  |
| C=CC(=O)NC1CCC(c2ccc(C(C)C(=O)Nc3cc(C4CC4)n[nH]3)cc2)CC1 (centres unmarked) [Compound 10, N-(4-(4-(1-((5-cyclopropyl-1H-pyrazol-3-yl)amino)-1-oxopropan-2-yl)phenyl)cyclohexyl)acrylamide] |  |  |  |  | 305.11 |  | 7.42 |
| C=CC(=O)N1CCC=C(c2ccc(C(C)C(=O)Nc3cc(C4CC4)[nH]n3)cn2)C1 (single isomer, unassigned) [Compound 36, 2-(1′-acryloyl-1′,2′,5′,6′-tetrahydro-[2,3′-bipyridin]-5-yl)-N-(5-cyclopropyl-1H-pyrazol-3-yl)propanamide] |  | 0.686 |  | 0.153 |  | 0.025 to 0.1 |  |
| C=CC(=O)NC1CCC(c2ccc(C(C)C(=O)Nc3cc(C4CC4)n[nH]3)cc2)CC1 (centres unmarked) [Compound 11, N-(4-(4-(1-((5-cyclopropyl-1H-pyrazol-3-yl)amino)-1-oxopropan-2-yl)phenyl)cyclohexyl)acrylamide] |  |  |  |  | 81.02 |  | 3.57 |
| C/C=C/C(=O)N1CCC=C(c2ccc(CC(=O)Nc3cc(C4CC4)[nH]n3)cn2)C1 [Compound 54, (E)-2-(1′-(but-2-enoyl)-1′,2′,5′,6′-tetrahydro-[2,3′-bipyridin]-5-yl)-N-(5-cyclopropyl-1H-pyrazol-3-yl)acetamide] |  | 0.094 |  | 0.003 |  |  |  |
| CC#CC(=O)N1CC=C(c2ccc(C(C)C(=O)Nc3cc(C4CC4)[nH]n3)cn2)CC1 (centres unmarked) [Compound 51, 2-(1′-(but-2-ynoyl)-1′,2′,3′,6′-tetrahydro-[2,4′-bipyridin]-5-yl)-N-(5-cyclopropyl-1H-pyrazol-3-yl)propanamide] | 8.33 | 0.203 | 1.69 | 0.025 | 67.68 |  |  |
| N#CN1CC=C(c2ccc(CC(=O)Nc3cc(C4CC4)[nH]n3)cn2)CC1 [Compound 62, 2-(1′-cyano-1′,2′,3′,6′-tetrahydro-[2,4′-bipyridin]-5-yl)-N-(5-cyclopropyl-1H-pyrazol-3-yl)acetamide] |  | 0.004 |  |  |  |  |  |
| C=C(C)C(=O)N1CCC=C(c2ccc(CC(=O)Nc3cc(C4CC4)[nH]n3)cn2)C1 [Compound 57, N-(5-cyclopropy1-1H-pyrazol-3-yl)-2-(1′-methacryloyl-1′,2′,5′,6′-tetrahydro-[2,3′-bipyridin]-5-yl)acetamide] |  | 0.14 |  | 0.01 |  |  |  |
| CC(C)=CC(=O)N1CCC=C(c2ccc(CC(=O)Nc3cc(C4CC4)[nH]n3)cn2)C1 [Compound 55, N-(5-cyclopropyl-1H-pyrazol-3-yl)-2-(1′-(3-methylbut-2-enoyl)-1′,2′,5′,6′-tetrahydro-[2,3′-bipyridin]-5-yl)acetamide] |  | 0.178 |  |  |  |  |  |
| C=CC(=O)N1CC=C(c2ccc(C(C)C(=O)Nc3cc(C4CC4)[nH]n3)cc2F)CC1 (centres unmarked) [Compound 45, 2-(4-(1-acryloyl-1,2,3,6-tetrahydropyridin-4-yl)-3-fluorophenyl)-N-(5-cyclopropyl-1H-pyrazol-3-yl)propanamide] | 12.94 | 0.445 | 5.76 | 0.26 | 22.15 |  |  |
| C=CC(=O)N1CCCC(c2ccc(C(C)C(=O)Nc3cc(C4CC4)[nH]n3)cn2)C1 (centres unmarked) [Compound 41, 2-(6-(1-acryloylpiperidin-3-yl)pyridin-3-yl)-N-(5-cyclopropyl-1H-pyrazol-3-yl)propanamide] | 9.91 | 0.354 | 3.51 | 0.029 | 121.03 |  |  |

Source: US10894786B2, “Substituted pyrazole derivatives as selective CDK12/13 inhibitors” (Aurigene Discovery Technologies Limited, priority 2018, dated 2021)
